# Assay results from patent publication US6528049B2, “Bisexual attractants, aggregants and arrestants for adults and larvae of codling moth and other species of lepidoptera” (Trece, Inc., priority 1999, dated 2003).
# Test system: male codling moth
# Experiment: Pheromone preference paired-trap test: pheromone alone vs pheromone + HPV
# Format: in vivo, Cydia pomonella
# Conditions: for % of pheromone-alone capture (line under HPV + Pheromone value) / Male CM Captured, HPV + Pheromone Trap: ± SEM / Male CM Captured, HPV + Pheromone Trap ± SEM / Average % Change in ♂♂ CM Capture: Table 8; for Male CM Captured, HPV + Pheromone Trap: ± SEM / Male CM Captured, HPV + Pheromone Trap ± SEM / Male CM Capture with Pheromone + HPV Blend: ♂♂/trap/night ± SEM: 10 mg/red septum; for Average % Change in ♂♂ CM Capture: average of four orchards; for % Change (Ph+HPV/Phxl00) in Male CM Capture / Impact of HPV Blend on Pheromone Attractancy to Male CM / Male CM Capture with Pheromone + HPV Blend: ♂♂/trap/night ± SEM: Table 9
# Source text: Interaction of synthetic apple and pear odor blends, described above in Table 2, and their effect on the attractancy of synthetic pheromone to codling moth was also studied. For that purpose, series of paired-traps containing pheromone alone or pheromone in combination with synthetic host plant volatile blends were placed in walnut orchards.
# Interaction of individual synthetic host plant volatiles or blends on the attractiveness of synthetic male pheromone to male codling moth administered in paired traps with pheromone alone or with pheromone and attractant 10 mg/red septum was also studied.
# Pheromone traps (sticky wing traps, Trécé, Inc.,) were hung as pairs: a pheromone only baited-trap vs. a pheromone+HPV blend-baited trap. The two traps of a test pair were attached in close competitive proximity (120 cm apart) on a common hanger bar (PVC pipe). The paired-trap bars were hung 5-6 meters high on the outer canopies of trees. A single pair-trap was hung per tree and different replicate test trees were separated by five rows in a matrix through the orchard. Each pheromone trap was baited with ½ of a commercial pheromone-impregnated rubber septum (Trécé, Inc.). Septa were sectioned by a razor blade. The HPV blends evaporated from their own separate impregnated rubber septa containing 10 mg diluted in hexane/septum).
# Tests were conducted in a Harley English walnut orchard. Tests spanned the entire two year seasons April-October with traps checked, males sexed, counted and removed every 2-7 days. Significant effect on pheromone trap capture were judged by paired tests either T-test or a nonparametric test.
Compound,% of pheromone-alone capture (line under HPV + Pheromone value) (Orchard #1) [%],"Male CM Captured, HPV + Pheromone Trap: ± SEM (Orchard #1)",% of pheromone-alone capture (line under HPV + Pheromone value) (Orchard #2) [%],"Male CM Captured, HPV + Pheromone Trap ± SEM (Orchard #2)",% of pheromone-alone capture (line under HPV + Pheromone value) (Orchard #3) [%],"Male CM Captured, HPV + Pheromone Trap: ± SEM (Orchard #3)",% of pheromone-alone capture (line under HPV + Pheromone value) (Orchard #4) [%],"Male CM Captured, HPV + Pheromone Trap: ± SEM (Orchard #4)",Average % Change in ♂♂ CM Capture [%],% Change (Ph+HPV/Phxl00) in Male CM Capture [%],Impact of HPV Blend on Pheromone Attractancy to Male CM,Male CM Capture with Pheromone + HPV Blend: ♂♂/trap/night ± SEM
CC(C)CCO [3-Methyl Butan-1-ol],118,1.29 ± 0.25 ♂♂/trap/night,86,1.19 ± 0.22 ♂♂/trap/night,95,2.82 ± 0.56 ♂♂/trap/night,115,2.91 ± 0.49 ♂♂/trap/night,104,–,–,–
C=C/C(C)=C/CC=C(C)C [(E)-β-Ocimene],135,1.40 ± 0.25 ♂♂/trap/night,114,0.88 ± 0.17 ♂♂/trap/night,102,2.38 ± 0.34 ♂♂/trap/night,96,–,112,–,–,–
CCCCO [Butan-1-ol],101,0.74 ± 0.17 ♂♂/trap/night,117,2.73 ± 0.56 ♂♂/trap/night,122,2.95 ± 0.43 ♂♂/trap/night,96,2.96 ± 0.62 ♂♂/trap/night,109,–,–,–
C=C1/C=C/[C@H](C(C)C)CC/C(C)=C/CC1 [Germacrene-D],–,–,–,–,–,–,–,–,–,109,No Effect,0.86 ± 0.19 ♂♂/trap/night
C=CC(=C)CCC=C(C)C [Myrcene],–,–,–,–,–,–,–,–,–,84,No Effect,1.03 ± 0.26 ♂♂/trap/night
C=C/C(C)=C/C/C=C(\C)CCC=C(C)C [alpha-Farnesene],–,–,–,–,–,–,–,–,–,86,No Effect,1.38 ± 0.39 ♂♂/trap/night
CC1=CCC(C(C)C)=CC1 [gamma-Terpinene],–,–,–,–,–,–,–,–,–,93,No Effect,0.88 ± 0.28 ♂♂/trap/night
Cc1ccc(C(C)C)cc1 [para-Cymene],117,0.92 ± 0.20 ♂♂/trap/night,102,1.39 ± 0.38 ♂♂/trap/night,108,4.76 ± 0.82 ♂♂/trap/night,136,4.27 ± 0.71 ♂♂/trap/night,116,–,–,–
C=C1CCC2CC1C2(C)C (stereo not drawn) [β-Pinene],61,0.75 ± 0.50 ♂♂/trap/night,63,1.25 ± 0.29 ♂♂/trap/night,130,3.37 ± 0.53 ♂♂/trap/night,112,4.95 ± 0.76 ♂♂/trap/night,92,–,–,–
